According to US9765061B2, “Trail enhancers for the selective killing of cancer cells” (The Scripps Research Institute, priority 2013, dated 2017):

Assays:
sXBP1 (UPR) = assay: RT-PCR assay of spliced XBP1 mRNA (sXBP1) in macrophages; type: cell-based, mouse; conditions: FIG. 1D and 1E
Description: FIG. 1: C12 induces the UPR in mammalian cells. (A and B). Comparison of the macrophage responsiveness to P. aeruginosa (P.a.), S. typhimurium (S.t), and S. aureus (S.a.). RT-PCR assay of XBP1 (A) and Western blot analysis (B) of p38, its phosphorylated form (p-p38) as well as phosphorylated forms of PERK (p-PERK) and eIF2α (p-eIF2α) in cell extracts after treatment with bacteria are shown. (C) Macrophages were stimulated with P. aeruginosa wild type (wt) or lasI mutant (ΔlasI), and cell extracts (total RNA or total protein) were prepared and analyzed as in (A and B). […] (F) Total RNA was prepared from lung of mice after inoculation of vehicle (-) or (C12) and analyzed in (D). […]
Among key biochemical signatures of the multicomponent ER stress pathway, known as the unfolded protein response (UPR), are the phosphorylation of the α-subunit of eukaryotic translation initiation factor-2 (eIF2α) and activation of the transcription factor XBP1/Hac1 (X-box binding protein-1 in metazoans and homologous to ATF/CREB in yeast, respectively) ^11. […] To initiate our studies, we exposed bone marrow-derived macrophages (BMDM) to these bacteria, and macrophage responsiveness was analyzed for biochemical markers of the UPR and the phosphorylation of the mitogen-activated protein kinase p38, as a common marker of TLR pathways. […]

MCF7 cells = assay: PARP cleavage in breast cancer MCF7 cells (Vector, Bcl-2, CLARP); type: cell-based, human; conditions: control MCF7, MCF7/Bcl-2 and MCF7/CLARP, FIG. 3B
Description: (§1) FIG. 3: Sensitivity of cancerous and non-cancerous cells to apoptosis induced by TNF, C12 or a combination of C12 and TNF. Cells were incubated with TNF, (C12) or a combination of TNF and (C12) as indicated, and the cleavage of PARP (an apoptotic marker) was determined by Western blot. (A and B) Breast cancer MCF-7 cells transfected with control vector (Vector) and vector expressing Bcl-2 or CLARP. (C) HeLa cell line. (D) Normal human bronchial epithelial cells (NHBE).
To further test this hypothesis, we compared sensitivity of breast cancer cell line MCF7 to apoptosis induced by TNF, C12 or their combination. In these experiments we used a control variant of MCF7 (Vector) as well as MCF7 cells stably expressing negative regulators of apoptosis, such as Bcl-2 and CLARP; Bcl-2 is an inhibitor of the intrinsic apoptotic pathway, whereas CLARP inhibits receptor-dependent apoptotic signaling, also called the extrinsic apoptotic pathway. The cells were incubated with TNF, C12 or their combination, and protein extracts were analyzed by Western blot for the cleavage of PARP, a biochemical marker indicative of apoptosis ^26.
Antibodies and Western blot analysis. Anti-eIF2α, phospho-eIF2α[…](p-eIF2α), p38, p-p38 (Thr180/Tyr132), p-RelA (Ser536), p-I κB ? […] Cellular extracts were prepared and analyzed by Western blot assay as previously described.^E3

HeLa cell line = assay: PARP cleavage in HeLa cells; type: cell-based, human; conditions: FIG. 3C
Description: as §1
Similar experiments were conducted by using normal human bronchial epithelial cells and HeLa cell line as an example of transformed cells. We observed that both HeLa and normal cells were resistant to pro-apoptotic effects of TNF (FIG. 3C and 3D). […] In addition, two stimuli—C12 and TNF—work synergistically against cancerous cells, although normal cells stay intact.
Antibodies and Western blot analysis. Anti-eIF2α, phospho-eIF2α[…](p-eIF2α), p38, p-p38 (Thr180/Tyr132), p-RelA (Ser536), p-I κB ? 32/36), PARP 20 antibodies were purchased from Cell Signaling; anti-RelA, I κB α, IκBβ were from Santa Cruz Biotechnology. Cellular extracts were prepared and analyzed by Western blot assay as previously described.^E3

Compound: CCCCCCCCCC(=O)CC(=O)N[C@H]1CCOC1=O [Compound 1, N-(3-oxo-dodecanoyl) homoserine lactone]
- induction of sXBP1 / activation of the UPR (sXBP1 (UPR)): time- and dose-dependent induction of sXBP1
- sensitivity to apoptosis (PARP cleavage), compound alone (MCF7 cells): showed sensitivity
- cleavage of PARP, compound alone (HeLa cell line): induced the cleavage of PARP
